Laboratory results published in ChEMBL document CHEMBL1177677, “Tryptamine-derived alkaloids from Annonaceae exerting neurotrophin-like properties on primary dopaminergic neurons” (Bioorg Med Chem, 2010).

Assays:
Neuron [1] = assay: Neuritogenic effect in rat DA neurons assessed as total neurite length per […] immunopositive neurons at 200 nM relative to control; format: functional
Neuron [2] = assay: Neuroprotective activity against degeneration of rat DA neurons assessed as […] immunopositive neurons immunofluorescence staining at 200 nM relative to control; format: functional
Neuron [3] = assay: Neuritogenic effect in rat DA neurons assessed as total neurite length per […] immunopositive neurons at 10 nM relative to control; format: functional
Neuron [4] = assay: Neuroprotective activity against degeneration of rat DA neurons assessed as […] immunopositive neurons at 10 nM by immunofluorescence staining relative to control; format: functional
[5] = Antioxidant activity assessed as ABTS radical scavenging activity; format: functional
Neuron [6] = assay: Antioxidant activity in mesecephalic neuron assessed as ROS production at 10 nM by dihydrorhodamine-123 incorporation assay relative to control; format: functional
Brain = assay: Biodistribution in Swiss mouse brain at 150 mg/kg, iv; format: ADME, organism-based; design: dose 150 mg/kg, route intravenous; conditions: in vivo
Mus musculus = organism: Mus musculus; assay: Toxicity in Swiss mouse assessed as change in body weight, food intake; format: organism-based; conditions: in vivo
Neuron [7] = assay: Antioxidant activity in mesecephalic neuron assessed as ROS production at 10 uM by dihydrorhodamine-123 incorporation assay relative to control; format: functional

| Compound | Activity (Neuron [3]) [%] | Activity (Neuron [4]) [%] | IC50 [5] [µM] | Activity (Neuron [6]) [%] | also measured |
| --- | --- | --- | --- | --- | --- |
| CCCC(=O)Nc1ncnc2c1ncn2[C@@H]1O[C@@H]2COP(=O)(O)O[C@H]2[C@H]1OC(=O)CCC [BUCLADESINE] | – | – | – | – | Activity (Neuron [1]): 333.1%; Activity (Neuron [2]): 149.9% |
| CCCCCCCCCCCCCCCCCCCCCCC(=O)NCCc1c[nH]c2ccccc12 | 145.4 | 114 | – | – | – |
| CCCCCCCCCCCCCCCNCCc1c[nH]c2ccccc12 | 132.7 | 106 | – | – | – |
| CCCCC/C=C\C/C=C\CCCCCCCCNCCc1c[nH]c2ccccc12 | 156.7 | 137.5 | 340 | 44 | – |
| CCCCCCCCCCCCCCCCCNCCc1c[nH]c2ccccc12 | 139 | 110.6 | – | – | – |
| CCCCCCCCCCCCCCCCCC(=O)NCCc1c[nH]c2ccccc12 | 149.9 | 110 | – | – | – |
| CCCCCCCCCCCCCCCCCCCC(=O)NCCc1c[nH]c2ccccc12 | 147.4 | 121.8 | – | – | – |
| CCCCCCCCCCCCC(=O)NCCc1c[nH]c2ccccc12 | 126.2 | 98.5 | > 1000 | – | – |
| CCCCCCCCCCCCCCCCNCCc1c[nH]c2ccccc12 | 197 | 131.9 | 620 | 47.8 | Drug uptake (Brain): 21.8 ng/mL; Activity (Mus musculus): Non-toxic |
| O=C(CCCCCCCCCCCCCCO)NCCc1c[nH]c2ccccc12 | 159.3 | 108 | > 1000 | 60.9 | – |
| CCCCCCCCCCCCCCCC(=O)NCCc1c[nH]c2ccccc12 | 168.6 | 121.3 | > 1000 | 55.9 | – |
| Cc1c(C)c2c(c(C)c1O)CCC(C)(C(=O)O)O2 (stereo unspecified) [TROLOX] | – | – | 550 | – | Activity (Neuron [7]): 44% |
| OCCCCCCCCCCCCCCCNCCc1c[nH]c2ccccc12 | 160.8 | 129.4 | 730 | 43.7 | – |
| CCCCCCCCCCCCCCCCCCNCCc1c[nH]c2ccccc12 | 157.3 | 129.9 | – | – | – |
| CCCCC/C=C\C/C=C\CCCCCCCC(=O)NCCc1c[nH]c2ccccc12 | 154 | 111.4 | – | 56.5 | – |
| CCCCCCCCCCCCCCCCCCCCCCCNCCc1c[nH]c2ccccc12 | 141.2 | 129.6 | 670 | – | – |
| CCCCCCCCCCCCCNCCc1c[nH]c2ccccc12 | 121.2 | 92.8 | 810 | – | – |
| CCCCCCCCCCCCCCCCC(=O)NCCc1c[nH]c2ccccc12 | 136 | 106 | – | – | – |
| CCCCCCCCCCCCCCCCCCCCNCCc1c[nH]c2ccccc12 | 132.6 | 128.9 | – | – | – |
| CCCCCCCCCCCCCCC(=O)NCCc1c[nH]c2ccccc12 | 139 | 99.3 | – | – | – |
